Measured values as given in patent publication EP0445062A1, “4(1H)Quinolone derivatives” (LABORATORIOS ALMIRALL SA, priority 1990, dated 1991).

Assays:
[1] = Chemical Abstracts Vol. 71, 113122 a (1969); cited from earlier work
[2] = J. Het. Chem. 23, 1801 (1986); cited from earlier work
[3] = system: Guinea-pig isolated tracheal rings; assay: Guinea-pig isolated tracheal rings (spontaneous tone), relaxation; parameters: species or system guinea-pigs; details: Cavia porcellus, concentration producing 50% relaxation, isoprenaline 10^-6 M response = 100%, read-out: TRACHEAL RING EC50
Experimental: Guinea-pig isolated tracheal rings (spontaneaus tone)
Male guinea-pigs (400-500 g) were killed, and their tracheae were removed and cut into pairs of rings. The rings were then mounted in organ baths containing Krebs-Henseleit solution at 37°C and oxygenated with […] under 1 g resting tension (Allen et al., Br.J.Pharmacol.(1986),89,395). After a 1 hour stabilization period, responses to isoprenaline 10⁻⁶ M were obtained. Tissues were then washed and after a period for restabilization (20 min) the effects of test drugs and flosequinan were investigated by adding cumulative concentrations of these to the baths.
Responses were measured as the percentage of the relaxation response to isoprenaline 10⁻⁶ M. The concentration producing a 50% relaxation taking isoprenaline responses as 100% (EC₅₀) was calculated.

male Swiss mice = assay: Acute toxicity in mice; assay type: in vivo; details: intraperitoneal, deaths after 48 hours, doses up to 300 mg/kg
Experimental: Acute toxicity of each compound was determined in groups of 5 male Swiss mice per dose. Administration of flosequinan and test compounds was made by the intraperitoneal route up the dose of 300 mg/kg. After 48 hours the number of deaths was noted and the dose producing 100% of deaths (LD₁₀₀) was calculated.

[4] = system: Guinea-pig isolated right ventricular strips; assay: Guinea-pig isolated right ventricular strips, increase in developed tension; parameters: species or system guinea-pigs; details: Cavia porcellus, stimulated at 1 Hz; for activation at 10 µM: percentage increase in developed tension at 10^-5 M, read-out: VENTRICULAR STRIP % at 10-5 M; for activation at 1 µM: percentage increase in developed tension at 10^-6M, read-out: VENTRICULAR STRIP % (10-6M)
Experimental: Guinea-pig isolated right ventricular strips
Male guinea-pigs of weight 400-500 g were killed, their hearts were removed and 2 ventricular preparations (ca 1 cm x 1 mm) cut from the right bide. There were then mounted in organ baths containing modified Krebs-Henseleit solution at 37°C and continually aereated with […]. The preparations were placed under 1 g resting tension and electrically stimulated to contract at 1 Hz whilst force of contraction was measured using an isometric force transducer (Gristwood and Owen, Br.J.Pharmacol. (1985),87,91P). Preparations were equilibrated for 60 min during which they were washed every 15 min with fresh buffer. Flosequinan and test compounds were added to the organ baths from 10^-6 to 10^-4 M concentrations and responses measured as percentage increases in developed tension.

anaesthetized rats = assay: Vasodilator activity in anaesthetized rats (fall in mean blood pressure); assay type: in vivo, Wistar rats; details: Rattus norvegicus, iv; dose producing 30% fall in mean blood pressure; i.v. bolus injection; read-out: MAN BP IN THE ANAESTH. RAT ED30
Experimental: Vasodilator activity in anaesthetized rats
Male Wistar rats of weight range 300-400 g were anaesthetized with pentobarbital (60 mg/kg i.p.). The trachea was canulated to permit artificial respiration. A carotid artery and a jugular vein were cannulated to permit recording of mean arterial blood pressure and i.v. administration of drugs respectively.
Following a period of stabilisation (20 min), flosequinan or test drugs were administered by bolus injection and falls in mean blood pressure recorded. Responses were measured as the percentage fall in blood pressure over control, calculating the dose that produced an effect of 30% (ED₃₀).

[5] = system: Conscious renal hypertensive beagle dogs; assay: Conscious renal hypertensive beagle dogs, fall in mean blood pressure after oral dosing; assay type: in vivo; details: oral by gavage; for CONSC.HYPERT. DOG AUC (0-4h) (1 mg/kg): 1 mg/kg po; for CONSC.HYPERT. DOG AUC (0-4h) at mg/kg po: dose not given
Experimental: Conscious renal hypertensive beagle dogs
Male beagle dogs were made hypertensive by the method of Page (J.Amer.Med.Assoc.(1939),113,2046). Two months later, these animals were prepared with exteriorized carotid loops (Gristwood et al., Br.J.Pharmacol. (1988),93,893) three weeks before using for experimentation. Animals were fasted 17 hours before administration of flosequinan or test compounds orally. Animals were then placed in restraints and allowed to settle for 1 hour. Mean blood pressure (MBP) was measured by puncturing the carotid loop with a 18G needle attached to a pressure transducer. Drugs (suspended in 1% methylcellulose + 0.05% Tween 80) were given orally by gavage at different doses, and mean blood pressure was measured over 4 hours using a polygraph. Drug responses were measured by calculating the area under the curve of percentage fall in mean blood pressure and time (units= % fall in MBP x hours) (Allen et al., J.Clin.Pharmacol.(1982),1S-23S).

SMILES	pharmacological activities [1]	antibacterial activity [2]	EC50 [3]	LD100 IN MICE (male Swiss mice)	activation at 10 µM [4]	ED30 (anaesthetized rats)	CONSC.HYPERT. DOG AUC (0-4h) (1 mg/kg) [5]	activation at 1 µM [4]	CONSC.HYPERT. DOG AUC (0-4h) at mg/kg po [5]	activation at 100 µM ([4]; percentage increase in developed tension at 10^-4M, read-out: VENTRICULAR STRIP % (10-4M))
Cn1cc(N)c(=O)c2ccccc21 [1-methyl-3-amino-4(1H)quinolone]	no appreciable pharmacological activities	–	–	–	–	–	–	–	–	–
CCn1cc(NS(C)(=O)=O)c(=O)c2cc(F)c(Cl)cc21 [A]	–	does not exhibit any interesting antibacterial activity	–	–	–	–	–	–	–	–
Cn1cc(NS(C)(=O)=O)c(=O)c2ccccc21 [Compound 1, 1-methyl-3-methylsulfonamido-4(1H) quinolone]	–	–	240 nM	>300 mg/kg ip	82%	0.02 mg/kg	54 (1 mg/kg) % fall in MBP x hours	–	–	–
Cn1cc(NS(C)(=O)=O)c(=O)c2cc(F)ccc21 [Compound 3, 1-methyl-3-methylsulfonylamino-6-fluoro-4(1H)quinolone]	–	–	600 nM	>300 mg/kg ip	53%	0.06 mg/kg	51 (1 mg/kg) % fall in MBP x hours	–	–	–
Cn1cc(NS(C)(=O)=O)c(=O)c2ccc(Cl)cc21 [Compound 4, 1-methyl-3-methylsulfonylamino-7-chloro-4(1H)quinolone]	–	–	500 nM	>300 mg/kg ip	–	0.01 mg/kg	–	55%	68 % fall in MBP x hours	–
Cn1cc(NS(C)(=O)=O)c(=O)c2ccc(C(F)(F)F)cc21 [Compound 5]	–	–	420 nM	>300 mg/kg ip	–	0.03 mg/kg	–	35%	–	–
Cn1cc(NS(C)(=O)=O)c(=O)c2ccc(F)cc21 [Compound 6, 1-methyl-3-methylsulfonylamino-7-fluoro-4(1H)quinolone]	–	–	360 nM	>300 mg/kg ip	86%	0.01 mg/kg	–	–	65 % fall in MBP x hours	–
COc1ccc2c(c1)c(=O)c(NS(C)(=O)=O)cn2C [Compound 11]	–	–	1600 nM	>300 mg/kg ip	52%	0.05 mg/kg	–	–	–	–
Cn1cc([S+](C)[O-])c(=O)c2ccc(F)cc21 (centres unmarked) [FLOSEQUINAN, 7-fluoro-1-methyl-3-methylsulfinyl-4(1H)quinolone, reference compound]	–	–	3000 nM	300 mg/kg ip	–	0.2 mg/kg	–	–	41 % fall in MBP x hours	75%
